Source: publication PMC7176092, “Development of the first in vivo GPR17 ligand through an iterative drug discovery pipeline: A novel disease-modifying strategy for multiple sclerosis” (PLoS ONE, 2020)
Where “and” joins values, the source holds several entries; their conditions need not be identical. Equal values may be shown once. Read-outs that look alike come from different tables or passages of the source. Marks after values point to notes of the source that are not given here.

Key:
CCR7 = target: T1, CCR7 (Homo sapiens, UniProt P32248); test: Cellular functional assay CCR7
T1 sequence (P32248 25-378): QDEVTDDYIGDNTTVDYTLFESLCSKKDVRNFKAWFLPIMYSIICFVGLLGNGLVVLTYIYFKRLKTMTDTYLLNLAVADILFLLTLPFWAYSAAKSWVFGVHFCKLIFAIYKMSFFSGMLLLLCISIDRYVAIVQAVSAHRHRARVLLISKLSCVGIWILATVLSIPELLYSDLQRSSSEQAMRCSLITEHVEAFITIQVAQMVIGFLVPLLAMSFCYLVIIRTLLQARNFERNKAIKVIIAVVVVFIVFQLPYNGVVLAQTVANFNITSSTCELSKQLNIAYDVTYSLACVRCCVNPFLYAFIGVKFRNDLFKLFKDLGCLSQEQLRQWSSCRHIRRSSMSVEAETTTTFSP

ADR1B = target: T2, ADR1B (Homo sapiens, UniProt P35368); test: Binding assay ADR1B; conditions: 100 nM
T2 construct: Eurofins Cerep (external service)
T2 sequence (P35368 1-520): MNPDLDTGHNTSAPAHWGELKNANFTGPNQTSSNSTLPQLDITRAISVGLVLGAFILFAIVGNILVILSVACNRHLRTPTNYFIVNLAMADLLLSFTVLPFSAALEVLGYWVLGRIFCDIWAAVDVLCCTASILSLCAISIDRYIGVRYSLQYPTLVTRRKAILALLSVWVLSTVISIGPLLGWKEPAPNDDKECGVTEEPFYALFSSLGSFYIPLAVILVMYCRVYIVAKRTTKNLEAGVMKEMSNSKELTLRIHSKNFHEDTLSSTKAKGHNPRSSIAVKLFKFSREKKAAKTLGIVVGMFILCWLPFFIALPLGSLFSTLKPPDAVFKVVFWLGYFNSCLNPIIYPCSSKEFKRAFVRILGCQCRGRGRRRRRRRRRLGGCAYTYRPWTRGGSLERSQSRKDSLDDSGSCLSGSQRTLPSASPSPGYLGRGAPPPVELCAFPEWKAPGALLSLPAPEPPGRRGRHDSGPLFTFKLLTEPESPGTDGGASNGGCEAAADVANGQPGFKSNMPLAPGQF

CXCR6 = CXCR6 (Homo sapiens, UniProt O00574); test: Cellular functional assay CXCR6
Chain of CXCR6 (O00574 whole entry): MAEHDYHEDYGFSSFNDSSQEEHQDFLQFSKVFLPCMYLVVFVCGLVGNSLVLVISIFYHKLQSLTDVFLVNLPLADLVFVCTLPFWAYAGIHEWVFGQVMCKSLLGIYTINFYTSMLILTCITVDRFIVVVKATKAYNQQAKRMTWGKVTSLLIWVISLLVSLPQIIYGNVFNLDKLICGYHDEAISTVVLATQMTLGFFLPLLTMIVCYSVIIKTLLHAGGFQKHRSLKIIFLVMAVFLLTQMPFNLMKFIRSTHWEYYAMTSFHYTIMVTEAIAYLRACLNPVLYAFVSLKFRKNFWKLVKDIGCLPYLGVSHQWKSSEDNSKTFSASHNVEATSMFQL

human GPR17 = target: T3, human GPR17 (Homo sapiens, UniProt Q13304); test: [35S]GTPγS binding assay; assay type: biochemical
T3 construct: HA; expressed in transfected cells
T3 sequence (Q13304 29-367): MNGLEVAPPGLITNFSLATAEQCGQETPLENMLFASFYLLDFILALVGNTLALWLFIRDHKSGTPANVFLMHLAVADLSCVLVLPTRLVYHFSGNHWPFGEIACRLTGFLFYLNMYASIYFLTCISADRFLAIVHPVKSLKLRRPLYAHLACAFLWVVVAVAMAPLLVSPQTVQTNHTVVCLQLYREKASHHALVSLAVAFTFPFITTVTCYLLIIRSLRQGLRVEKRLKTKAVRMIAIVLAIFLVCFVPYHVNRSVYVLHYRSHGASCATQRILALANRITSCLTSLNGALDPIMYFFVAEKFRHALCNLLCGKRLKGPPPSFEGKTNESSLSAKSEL
Procedure: [^35S]GTPγS binding assays were carried out as previously described. Briefly, control and astrocytoma 1321N1 cells stably transfected with human pcDNA3.1 (control cells) and human HA-tag GPR17 were homogenized in 5 mM Tris/HCl and 2 mM EDTA (pH 7.4) and centrifuged at 48,000g for 15 min at 4°C. The resulting pellets were washed in 50 mM Tris/HCl and 10 mM MgCl2 (pH 7.4). After protein dosage, aliquots of cell membranes were incubated with increasing concentrations of each investigated ligand (1 pM–10 μM) and GTPγS binding to activated G-proteins was quantified as previously described. Compounds were purchased from two external providers, i.e., Ambinter (Ambinter c/o Greenpharma, Orléans, France http://www.ambinter.com/) and Asinex (http://www.asinex.com/).
For analysis and graphic presentation of [^35S]GTPγS binding data, a nonlinear multipurpose curve fitting computer program (Graph-Pad Prism) was used. All data are presented as the mean ± SEM of three different experiments.
The selected 15 molecules were evaluated in our in-house [^35S]GTPγS functional assay in membranes from cells transfected with human GPR17. […] Moreover, this assay has been already successfully used in the past to measure the ability of both endogenous and novel synthetic compounds to activate GPR17 [25, 31]. All tested molecules were able to potently activate GPR17 with nanomolar/sub-nanomolar affinities. Concentration-response curves obtained for each selected compound are reported in S4 Fig.

mGluR5 = target: T4, mGluR5 (Homo sapiens, UniProt P41594); test: Binding assay mGluR5; conditions: 100 nM
T4 construct: Eurofins Cerep (external service)
T4 sequence (P41594 21-1212): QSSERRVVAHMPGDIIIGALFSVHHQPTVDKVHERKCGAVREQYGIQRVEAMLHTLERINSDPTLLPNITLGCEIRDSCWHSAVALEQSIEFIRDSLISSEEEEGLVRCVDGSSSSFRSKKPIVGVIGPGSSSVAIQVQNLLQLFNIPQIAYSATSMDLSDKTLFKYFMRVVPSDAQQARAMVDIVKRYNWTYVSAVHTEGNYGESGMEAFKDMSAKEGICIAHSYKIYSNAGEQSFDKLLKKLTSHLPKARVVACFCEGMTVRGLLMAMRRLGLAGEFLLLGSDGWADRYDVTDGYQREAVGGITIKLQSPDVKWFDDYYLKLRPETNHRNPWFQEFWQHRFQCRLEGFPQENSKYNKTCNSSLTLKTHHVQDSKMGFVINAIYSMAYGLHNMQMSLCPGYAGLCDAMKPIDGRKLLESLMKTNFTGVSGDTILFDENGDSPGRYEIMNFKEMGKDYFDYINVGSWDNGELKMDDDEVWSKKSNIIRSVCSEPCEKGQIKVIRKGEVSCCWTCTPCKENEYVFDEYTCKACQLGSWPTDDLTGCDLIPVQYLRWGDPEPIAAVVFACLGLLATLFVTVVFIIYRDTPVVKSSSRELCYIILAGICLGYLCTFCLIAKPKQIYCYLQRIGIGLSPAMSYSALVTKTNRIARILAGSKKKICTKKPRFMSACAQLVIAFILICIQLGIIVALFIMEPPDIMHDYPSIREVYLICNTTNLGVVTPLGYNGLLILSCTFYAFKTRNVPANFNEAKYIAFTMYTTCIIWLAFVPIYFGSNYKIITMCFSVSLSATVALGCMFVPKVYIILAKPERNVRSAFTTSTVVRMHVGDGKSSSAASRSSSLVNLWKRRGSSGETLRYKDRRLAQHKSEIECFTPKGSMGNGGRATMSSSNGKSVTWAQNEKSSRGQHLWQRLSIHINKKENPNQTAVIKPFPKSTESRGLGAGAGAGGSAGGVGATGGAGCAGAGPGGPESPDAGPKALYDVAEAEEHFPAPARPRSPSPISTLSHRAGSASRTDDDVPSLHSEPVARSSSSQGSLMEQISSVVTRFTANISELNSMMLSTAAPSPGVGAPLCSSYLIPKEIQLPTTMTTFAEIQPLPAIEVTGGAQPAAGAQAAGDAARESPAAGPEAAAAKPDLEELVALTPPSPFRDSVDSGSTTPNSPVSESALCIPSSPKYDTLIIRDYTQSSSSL

CCR6 = target: T5, CCR6 (Homo sapiens, UniProt P51684); test: Cellular functional assay CCR6
T5 sequence (P51684 1-374): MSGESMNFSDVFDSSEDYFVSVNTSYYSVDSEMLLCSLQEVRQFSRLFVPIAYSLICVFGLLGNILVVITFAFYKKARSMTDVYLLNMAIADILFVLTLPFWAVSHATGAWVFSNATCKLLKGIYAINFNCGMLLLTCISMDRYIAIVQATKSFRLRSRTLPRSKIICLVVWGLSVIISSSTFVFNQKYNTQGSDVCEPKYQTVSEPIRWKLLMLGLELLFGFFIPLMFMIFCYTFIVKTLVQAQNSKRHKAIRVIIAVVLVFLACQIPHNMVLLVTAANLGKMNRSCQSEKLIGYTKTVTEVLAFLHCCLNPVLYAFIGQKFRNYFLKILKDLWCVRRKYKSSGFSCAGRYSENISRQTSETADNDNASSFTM

ADR2A = target: T6, ADR2A (Homo sapiens, UniProt P08913); test: Binding assay ADR2A; conditions: 100 nM
T6 construct: Eurofins Cerep (external service)
T6 sequence (P08913 1-465): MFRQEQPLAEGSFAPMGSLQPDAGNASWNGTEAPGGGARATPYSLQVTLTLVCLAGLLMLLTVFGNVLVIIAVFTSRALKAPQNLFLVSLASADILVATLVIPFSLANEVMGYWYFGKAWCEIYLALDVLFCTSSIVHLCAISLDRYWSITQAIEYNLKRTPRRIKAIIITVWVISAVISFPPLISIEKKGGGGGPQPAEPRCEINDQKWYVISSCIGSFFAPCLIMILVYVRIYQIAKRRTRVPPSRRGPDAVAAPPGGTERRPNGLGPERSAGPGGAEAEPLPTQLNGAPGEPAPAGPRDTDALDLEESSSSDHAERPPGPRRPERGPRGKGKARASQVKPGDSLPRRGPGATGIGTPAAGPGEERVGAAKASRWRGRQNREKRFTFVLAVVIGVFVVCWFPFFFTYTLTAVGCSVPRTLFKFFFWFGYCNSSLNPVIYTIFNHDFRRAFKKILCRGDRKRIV

[1] = antagonist effect, 100 nM, single replicates 1st and 2nd, 0.1 µM
[2] = read-out: % Inhibition of control agonist response
[3] = read-out: Agonist Response (% of Control), Mean, antagonist effect, 100 nM, mean of 2
[4] = read-out: Agonist Response (% of Control), antagonist effect, 100 nM, single replicates 1st and 2nd
[5] = mean of 2, read-out: % Of control specific binding, Mean
[6] = read-out: % Inhibition of control specific binding
[7] = single replicates 1 and 2, 0.1 µM
[8] = single replicates 1 and 2, read-out: % Of control specific binding

Agonist Response (% of Control) (CCR7; [1]): 122.8%
inhibition at 0.1 µM (CCR7; [2]): -1.8%
activity at 0.1 µM (CCR7; [3]): 127%
activity at 0.1 µM (CCR7; [4]): 131%
remaining activity at 0.1 µM (ADR1B; [5]): 89.8%
inhibition at 0.1 µM (ADR1B; [6]): 10%
% Of control specific binding (ADR1B; [7]): 100.1% and 79.4%
Agonist Response (% of Control) (CXCR6; [1]): 103.1%
inhibition at 0.1 µM (CXCR6; [2]): -0.7%
activity at 0.1 µM (CXCR6; [3]): 104%
activity at 0.1 µM (CXCR6; [4]): 105%
EC50 (human GPR17; membranes of 1321N1 cells transfected with human GPR17, mean ± SEM of 3 experiments): 0.64 ± 0.12 nM
% Emax (ratio vs Emax of the standard) (human GPR17; standard LTD4 50 nM set to 100% († compounds)): 88.5 ^** %
Emax (% vs basal) (human GPR17; vs basal, mean ± SEM): 127.8 ± 3.0%
remaining activity at 0.1 µM (mGluR5; [5]): 104%
inhibition at 0.1 µM (mGluR5; [6]): -4%
% Of control specific binding (mGluR5; [7]): 106.8%
remaining activity at 0.1 µM (mGluR5; [8]): 102%
Agonist Response (% of Control) (CCR6; [1]): 105.9%
inhibition at 0.1 µM (CCR6; [2]): -0.3%
activity at 0.1 µM (CCR6; [3]): 106%
activity at 0.1 µM (CCR6; [4]): 105%
remaining activity at 0.1 µM (ADR2A; [5]): 99.9%
inhibition at 0.1 µM (ADR2A; [6]): 0%
% Of control specific binding (ADR2A; [7]): 99.5%
remaining activity at 0.1 µM (ADR2A; [8]): 100%
Compound: Cc1ccc(-c2nnc(SCC(=O)Nc3nccs3)[nH]2)cc1 [Compound 9]
